Test system: Plasmopara viticola
Assay: Test of a composition against vine downy mildew, preventive action, on grapevine plants
Format: in vivo
Conditions: grapevine var. Chardonnay sprayed 3 days before inoculation, evaluated 7 days after contamination, Abbott formula, untreated control 90% sporulated surface
Protocol: Test of a Composition Against Vine Downy Mildew (Plasmopara Viticola; Preventive Action)
Grapevine plants are grown (var. Chardonnay) on sandy soil in plastic pots, with one plant per pot. The plants which are two months old (6 to 7 developed leaves) are sprayed with compound (I) and compound (II), either alone, or as a mixture.
The fungicidal active ingredients, either alone, or as a mixture, are applied at a dose equivalent to 500 litres/ha.
The compound (I)/compound (II) ratio studied is 1/2.
Three days after the treatment, each plant is inoculated by spraying an aqueous suspension of Plasmopara viticola sporangia obtained from contaminated leaves. The sporangium concentration is about 100 000 units per ml.
After contamination, the plants are incubated for two days at 18° C. under a saturated atmosphere, and then for 5 days at about 20° C. with a relative humidity of 90-100%.
Seven days after the contamination, the symptoms are evaluated in terms of underside surface of the leaves which are infected, compared with the untreated but contaminated plants.
The efficacy of the treatment is calculated using the following Abbott formula: [formula]
The concentrations of the fungicides, alone or as a mixture, giving 50%, 70% or 90% efficacy for each component, in the appropriate test, are determined based on the dose/response sigmoid curve model and their corresponding confidence intervals. […]

SMILES: O=C(NCc1ncc(C(F)(F)F)cc1Cl)c1c(Cl)cccc1Cl [Compound (Ia), 2,6-dichloro-N-{[3-chloro-5-(trifluoromethyl)-2-pyridinyl]methyl}benzamide]
- Efficacy (%) (5 mg/l): 40%

SMILES: CSC1=N[C@@](C)(c2ccccc2)C(=O)N1Nc1ccccc1 [Fenamidone, (S)-1-anilino-4-methyl-2-methylthio-4-phenylimidazolin-5-one]
- Efficacy (%) (10 mg/l): 72%

— US20040106578A1, “Fungicidal compositions based on pyridylmethylbenzamide derivatives and at least one complex III inhibiting compound” (priority 2001, published 2004)
